Measurements published in US10206989B2, “CDCA1 epitope peptides for Th1 cells and vaccines containing the same” (OncoTherapy Science, Inc., priority 2012, dated 2019).

What was measured:
Th cell clones = experiment: Recognition of CDCA1 protein-loaded autologous DCs by Th clones (natural processing), IFN-gamma ELISPOT; format: cell-based, human; settings: DCs loaded with recombinant CDCA1 protein 50 micro g/ml
Source text: The 6His-tagged recombinant whole CDCA1 proteins and truncated CDCA1 proteins that lack both CDCA1-derived Th epitopes recognized by CDCA1 (55-78) and CDCA1 (39-64)-specific Th cells were expressed by E. coli BL21 strains with a pET28a vector (Novagen) that has respective cDNA fragments. The truncated CDCA1 protein was used as control protein. Each recombinant protein was purified using a HisTrap FF column (GE Healthcare) according to the manufacturer's instruction. The purity of the proteins was verified by SDS-PAGE.
The immune response of Th cells to APCs pulsed with peptides and proteins were assessed by IFN-gamma ELISPOT assays (Human IFN-gamma ELISPOT kit, BD Biosciences) as described previously (Tomita Y et al. Cancer Sci.; 102: 697-705.). Briefly, the frequency of peptide-specific CD4^+ T cells producing interferon (IFN)-gamma per 3×10^4 bulk CD4^+ T cells upon stimulation with peptide-pulsed PBMCs (3×10^4/well), or 1×10^4 bulk CD4^+ T cells upon stimulation with peptide-pulsed HLA-DR-expressing L-cells (5×10^4/well) was analyzed. The frequency of cells producing interferon (IFN)-gamma per 1×10^5 CTLs upon stimulation with peptide-pulsed T2 cells (2×10^4/well) was also analyzed. Alternatively, 5×10^3 protein-loaded DCs were co-cultured with 2×10^4 CD4^+ T cell clones/well. […]

[1] = system: CDCA1-A24 (56-64)-specific CTLs; experiment: In vitro cross-presentation assay with unfixed or fixed DCs, intracellular IFN-gamma; format: cell-based, human; settings: cross presented by unfixed DCs (DC+LP); peptide 16 micro M, 3 h pulse
Method: An HLA-A24^+ donor (HD2)-derived DCs were kept alive or fixed for 3 min in 0.1% glutaraldehyde (Sigma-Aldrich), pulsed with peptides (16 micro M) for 3 h, and washed 3 times. OK432 (0.1 KE/mL, Chugai Pharmaceutical Co, Tokyo, Japan) was added to induce the maturation of DCs during and after the peptide pulse. CDCA1-A24 (56-64)-reactive bulk CTLs were added at a 2:1 ratio for 6 h in medium containing 10 micro g/mL brefeldin A (Sigma-Aldrich). The brefeldin A was added to inhibit protein secretion during the stimulation. IFN-gamma production by the CDCA1-A24 (56-64)-specific CTLs was measured by intracellular labeling. The cells were stained with a FITC-labeled anti-human IFN-gamma mAb (BioLegend) in combination with a PerCP-labeled anti-human CD8 mAb (BioLegend) and a PE-labeled CDCA1-A24 (56-64)-specific tetramer. Data acquisition was performed on a FACSCalibur (BD Biosciences) and data files were analyzed with FlowJo software (Tree Star, Ashland, Oreg.).

## NPKPEVLHMIYMRALQIVYGIRLEHF [CDCA1 (39-64)]
Th cell clones
  Natural processing of the Th cell epitope by DC from CDCA1-protein: naturally processed
[1]
  IFN-gamma secreting tetramer+ CD8+ T-cells: significant proportion
